Results published in publication PMC6798786 (Brain Communications, 2019).
pKi: −log10 of the molar value. “Also recorded” adds a separate entry of the source. Like-named read-outs stand apart in the source and are kept apart here.

Columns and labels:
human 5-HT2R = experiment: radioligand binding (NIMH PDSP), any 5-HT2R subtype; conditions: 5-HT2AR, 5-HT2BR, 5-HT2CR
Protocol: (§1) All in vitro binding assay and Ki data studies were performed by the US National Institute of Mental Health Psychoactive Drug Screening Program (NIMH PDSP). For these studies, drugs were screened against recombinant, stably expressed human 5-HT2AR, 5-HT2BR, 5-HT2CR and H1, as described at https://pdspdb.unc.edu/pdspWeb/ ([Besnard et al., 2012]).
Additionally, 5-HT2R modulating compounds exert antiepileptic activity in both preclinical ([Sourbron et al., 2016]; [Griffin et al., 2017]) and clinical studies ([Griffin et al., 2017]; [Schoonjans et al., 2017]; [Kauppila et al., 2018]). […] […].

human H1 = human H1 (Homo sapiens, UniProt P35367); experiment: radioligand binding (NIMH PDSP)
Protocol: as §1

human 5-HT2BR [1] = target: T1, human 5-HT2BR (Homo sapiens, UniProt P41595); experiment: radioligand binding (NIMH PDSP)
Protocol: as §1

human 5-HT2CR [2] = target: T2, human 5-HT2CR (Homo sapiens, UniProt P28335); experiment: radioligand binding (NIMH PDSP); conditions: recombinant, stably expressed human receptor; clemizole analogues
T2 sequence (P28335 33-458): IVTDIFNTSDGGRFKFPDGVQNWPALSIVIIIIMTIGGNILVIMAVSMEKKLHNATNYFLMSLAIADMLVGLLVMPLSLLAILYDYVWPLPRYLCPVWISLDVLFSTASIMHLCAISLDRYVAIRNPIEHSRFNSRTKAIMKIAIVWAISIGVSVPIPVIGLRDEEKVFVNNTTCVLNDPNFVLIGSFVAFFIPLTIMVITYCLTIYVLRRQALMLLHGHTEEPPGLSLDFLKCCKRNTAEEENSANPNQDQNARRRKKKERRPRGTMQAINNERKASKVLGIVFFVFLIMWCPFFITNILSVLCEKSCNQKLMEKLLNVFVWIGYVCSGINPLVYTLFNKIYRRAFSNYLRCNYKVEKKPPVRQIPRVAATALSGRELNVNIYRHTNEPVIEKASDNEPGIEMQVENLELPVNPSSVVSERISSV
Protocol: as §1

human 5-HT2AR [3] = target: T3, human 5-HT2AR (Homo sapiens, UniProt P28223); experiment: radioligand binding (NIMH PDSP); conditions: recombinant, stably expressed human receptor; clemizole analogues
Protocol: as §1

human 5-HT2AR [4] = target: T3, human 5-HT2AR; conditions: cited from earlier work; for Ki: read-out: 5-HT2AR (nM), Table S3
5-HT7 = conditions: known drugs of Table 1; reference not given; cited from earlier work
5-HT transporter = conditions: known drugs of Table 1; reference not given; cited from earlier work
scn1lab mutant zebrafish [5] = experiment: locomotion (mean swim velocity) seizure-like behaviour assay in scn1lab mutant zebrafish larvae; type: in vivo, Danio rerio; conditions: for effect on seizure-like swim behaviour, commercially available compounds: three concentrations; for effect on seizure-like swim behaviour, commercially available compounds / effect on seizure-like swim behaviour, retest of independently synthesized compound: 30 and 90 min exposure; for effect on seizure-like swim behaviour, initial library screen: 100 µM or 250 µM, UCSF-synthesized compound; for effect on seizure-like swim behaviour, retest of independently synthesized compound: 10, 50, 100 and 250 µM; for change in vivo at 100 µM / change in vivo at 250 µM: Danio rerio
Protocol: For locomotion studies, zebrafish larvae (5 days post-fertilization) were placed into a single well of a clear flat-bottomed 96-well microplate containing embryo media. Sex determination is not possible at this stage of development. All drug screening experiments were conducted in an unbiased manner by investigators blinded to the test compounds and all files coded for post hoc analysis. The 96-well plate containing larvae was then placed inside a DanioVision box where they were allowed to acclimate (20 min; room temperature). EthoVision XT software (DanioVision, Noldus Information Technology) was used to obtain locomotion plots (10 min in duration). Seizure scoring was performed, as described ([Baraban et al., 2005]). All locomotion plots were analysed for distance travelled (in millimetres) and mean velocity (in millimetres per second). After 90 min of drug exposure larvae were examined for toxic side-effects. Compounds that decreased or stopped the larva heartbeat, or reduced or eliminated the escape response when touched, were considered toxic.
For behaviour analysis, the threshold for a change in mean swim velocity ≥40% is considered significant (>1.5× SD of 250 control treated scn1lab). Unless otherwise indicated, all data in this manuscript are presented as the mean ± standard error of the mean. […] Statistically significant differences are indicated with asterisks (*P < 0.05; **P < 0.01; ***P < 0.001). […]

scn1lab mutant zebrafish [6] = experiment: local field potential (LFP) electrophysiology, electrographic seizure events; type: in vivo, Danio rerio; conditions: for effect on electrographic seizure activity (LFP): 100 µM
Protocol: Using a glass micro-electrode positioned under an upright microscope, local field potential (LFP) recordings were obtained from forebrain or optic tectum structures, as described ([Baraban et al., 2005]). Agarose-embedded LFP recording sessions (10 min in duration) were obtained using Axoclamp software (Molecular Devices; Sunnyvale, CA, USA) and sampled at 1 kHz. Epileptiform events were identified post hoc. These were classified as multi-spike or poly-spike upward or downward membrane deflections greater than 3× baseline noise level and 150–250 ms in duration (interictal-like) or greater than 5× baseline noise, multi-spike and >500 ms in duration (ictal-like); both events were counted using threshold detection settings in Clampfit (Molecular Devices; Sunnyvale, CA, USA). Agarose-embedded larvae were continuously monitored for blood flow and heart rate using an Axiocam digital camera at video frame rate.
Monitoring electrographic brain activity to confirm seizure suppression is an essential assay to eliminate false positives from behavioural testing ([Griffin et al., 2018]). By placing a micro-electrode into a visually identified brain region of an agar-immobilized zebrafish larval, stable LFP recordings can be monitored for several hours ([Baraban, 2013]). At 5 days post-fertilization, LFP recordings of scn1Lab zebrafish larvae show an average of 250 abnormal electrographic seizure events during a 10 min recording epoch.

5-HT1A = conditions: known drugs of Table 1; reference not given; cited from earlier work
human 5-HT2CR [7] = target: T2, human 5-HT2CR; conditions: commercially available compounds known to bind 5-HT2BR; ref Roth et al., 2000; read-out: 5-HT2CR (nM), Table S3; cited from earlier work
human 5-HT2BR [8] = target: T1, human 5-HT2BR; conditions: commercially available compounds known to bind 5-HT2BR; ref Roth et al., 2000; read-out: 5-HT2BR (nM), Table S3; cited from earlier work
[9] = recombinant, stably expressed human receptor, clemizole analogues, read-out: Ki H1
[10] = recombinant, stably expressed human receptor, clemizole analogues, read-out: Ki 5-HT2BR
[11] = commercially available compounds known to bind 5-HT2BR, ref Roth et al., 2000
[12] = read-out: % change in velocity, individual larva 1 (heat map)
[13] = read-out: % change in velocity, individual larva 2 (heat map)
[14] = read-out: % change in velocity, individual larva 3 (heat map)
[15] = read-out: % change in velocity, individual larva 4 (heat map)
[16] = read-out: % change in velocity, individual larva 5 (heat map)
[17] = read-out: % change in velocity, individual larva 6 (heat map)
[18] = read-out: mean velocity change from six fish, Trial 1
[19] = read-out: mean velocity change from six fish, Trial 2

T3 sequence (P28223 whole entry): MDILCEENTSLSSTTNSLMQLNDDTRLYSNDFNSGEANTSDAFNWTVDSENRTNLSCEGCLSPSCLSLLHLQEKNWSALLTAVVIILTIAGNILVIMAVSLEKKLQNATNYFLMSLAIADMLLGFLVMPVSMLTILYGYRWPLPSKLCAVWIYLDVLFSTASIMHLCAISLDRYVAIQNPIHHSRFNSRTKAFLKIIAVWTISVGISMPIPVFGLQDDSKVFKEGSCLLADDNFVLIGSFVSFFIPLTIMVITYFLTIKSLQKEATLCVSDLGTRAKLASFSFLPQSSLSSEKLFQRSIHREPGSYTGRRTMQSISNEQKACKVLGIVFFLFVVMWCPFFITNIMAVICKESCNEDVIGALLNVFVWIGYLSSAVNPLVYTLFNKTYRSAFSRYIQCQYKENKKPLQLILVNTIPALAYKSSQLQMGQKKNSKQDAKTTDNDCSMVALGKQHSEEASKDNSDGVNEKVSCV
T1 sequence (P41595 whole entry): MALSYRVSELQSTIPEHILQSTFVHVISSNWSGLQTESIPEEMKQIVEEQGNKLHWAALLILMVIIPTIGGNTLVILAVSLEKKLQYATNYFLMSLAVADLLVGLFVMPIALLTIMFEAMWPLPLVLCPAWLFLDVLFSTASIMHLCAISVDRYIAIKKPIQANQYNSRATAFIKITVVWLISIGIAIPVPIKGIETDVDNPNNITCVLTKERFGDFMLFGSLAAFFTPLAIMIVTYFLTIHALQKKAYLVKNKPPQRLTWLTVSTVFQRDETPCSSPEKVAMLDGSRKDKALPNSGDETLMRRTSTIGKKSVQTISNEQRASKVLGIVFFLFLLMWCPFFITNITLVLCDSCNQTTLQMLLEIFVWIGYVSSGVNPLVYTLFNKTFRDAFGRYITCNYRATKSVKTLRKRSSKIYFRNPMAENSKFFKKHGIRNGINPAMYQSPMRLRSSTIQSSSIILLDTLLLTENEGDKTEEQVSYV
Sequence of human H1 (P35367 whole entry): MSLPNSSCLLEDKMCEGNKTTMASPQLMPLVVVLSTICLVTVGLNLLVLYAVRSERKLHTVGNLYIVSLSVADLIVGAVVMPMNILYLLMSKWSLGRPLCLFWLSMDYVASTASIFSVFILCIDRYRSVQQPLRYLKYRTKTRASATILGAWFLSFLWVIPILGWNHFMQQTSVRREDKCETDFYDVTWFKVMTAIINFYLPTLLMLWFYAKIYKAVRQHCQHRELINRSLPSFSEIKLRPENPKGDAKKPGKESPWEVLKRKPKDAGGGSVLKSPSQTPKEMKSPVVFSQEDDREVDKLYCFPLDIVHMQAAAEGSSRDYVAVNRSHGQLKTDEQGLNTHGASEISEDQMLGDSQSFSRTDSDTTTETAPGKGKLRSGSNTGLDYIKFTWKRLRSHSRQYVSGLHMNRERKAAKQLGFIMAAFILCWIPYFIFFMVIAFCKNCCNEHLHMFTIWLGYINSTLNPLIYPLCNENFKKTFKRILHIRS

Structure (SMILES) | effect on seizure-like swim behaviour, commercially available compounds (scn1lab mutant zebrafish [5]) | Ki (human 5-HT2CR [7]) [nM] | Ki (human 5-HT2BR [8]) [nM] | change in vivo at 100 µM (scn1lab mutant zebrafish [5]; [12]) [%] | change in vivo at 250 µM (scn1lab mutant zebrafish [5]; [12]) [%] | change in vivo at 100 µM (scn1lab mutant zebrafish [5]; [13]) [%] | change in vivo at 250 µM (scn1lab mutant zebrafish [5]; [13]) [%] | change in vivo at 100 µM (scn1lab mutant zebrafish [5]; [14]) [%] | change in vivo at 250 µM (scn1lab mutant zebrafish [5]; [14]) [%] | change in vivo at 100 µM (scn1lab mutant zebrafish [5]; [15]) [%] | change in vivo at 250 µM (scn1lab mutant zebrafish [5]; [15]) [%] | change in vivo at 100 µM (scn1lab mutant zebrafish [5]; [16]) [%] | change in vivo at 250 µM (scn1lab mutant zebrafish [5]; [16]) [%] | change in vivo at 100 µM (scn1lab mutant zebrafish [5]; [17]) [%] | change in vivo at 250 µM (scn1lab mutant zebrafish [5]; [17]) [%] | change in vivo at 100 µM (scn1lab mutant zebrafish [5]; [18]) [%] | change in vivo at 250 µM (scn1lab mutant zebrafish [5]; [18]) [%] | change in vivo at 100 µM (scn1lab mutant zebrafish [5]; [19]) [%] | change in vivo at 250 µM (scn1lab mutant zebrafish [5]; [19]) [%] | further results
FC1(F)CCC(Cn2c(CN3CCCC3)nc3ccccc32)CC1 [Compound 17] |  |  |  |  |  |  |  |  |  |  |  |  |  |  |  |  |  |  |  | binding to any human 5-HT2R (human 5-HT2R): no significant binding; pKi (human H1; [9]): 6.86; pKi (human 5-HT2BR [1]; [10]): < 5.00; pKi (human 5-HT2CR [2]): < 5.00; pKi (human 5-HT2AR [3]): < 5.00
CC(N)Cc1ccc2ccoc2c1 (centres unmarked) [Compound 6-APB, 6-(2-aminopropyl)benzofuran] | suppressed convulsive swim behaviours in a concentration-dependent manner |  |  |  |  |  |  |  |  |  |  |  |  |  |  |  |  |  |  | pKi (human 5-HT2AR [4]; known drugs of Table 1, reference not given, read-out: Ki 5-HT2A, Table 1 known drugs): 5.72; pKi (5-HT7): 6.81; pKi (5-HT transporter): 5.57; effect on frequency of electrographic seizure events (LFP) (scn1lab mutant zebrafish [6]; 250 µM, 10 min recording epoch): significantly suppressed the frequency of electrographic seizure events; pKi (5-HT1A): 5.89
c1ccc2c(c1)nc(CN1CCCC1)n2CC1CCOCC1 [Compound 15] |  |  |  |  |  |  |  |  |  |  |  |  |  |  |  |  |  |  |  | binding to any human 5-HT2R (human 5-HT2R): no significant binding; pKi (human H1; [9]): 6.06; pKi (human 5-HT2BR [1]; [10]): < 5.00; pKi (human 5-HT2CR [2]): < 5.00; pKi (human 5-HT2AR [3]): < 5.00
Br.CN(C)C1CCc2cc(O)c(O)cc2C1 (centres unmarked) [TL-99] | failed to elicit any behavioural effect | 2290 | 2040 |  |  |  |  |  |  |  |  |  |  |  |  |  |  |  |  | Ki (human 5-HT2AR [4]; [11]): 2340 nM
c1ccc2c(c1)nc(CN1CCCC1)n2CC1CCCCC1 [Compound 4] |  |  |  | -85.7 | -93.5 | -30.6 | -100 | -85.6 | -100 | -68.3 | -67.4 | -79.4 | -83.7 | 146 | -100 | -41.7 | -93.4 | -44.8 | -100 | effect on seizure-like swim behaviour, initial library screen (scn1lab mutant zebrafish [5]): effective in suppressing; effect on seizure-like swim behaviour, retest of independently synthesized compound (scn1lab mutant zebrafish [5]): reduced the high-velocity seizure-like swim behaviour; effect on electrographic seizure activity (LFP) (scn1lab mutant zebrafish [6]; 10 min recording epoch): significant suppression of electrographic seizure activity; pKi (human H1): 6.82; pKi (human 5-HT2BR [1]): 6.21
c1cn(CC2CCCCC2)c(CN2CCCC2)n1 [Compound 21] |  |  |  | 17.5 | 52.2 | -5.2 | -11.5 | 11.1 | 80.9 | 8.5 | -44.9 | 13.2 | 37.8 | 24 | -14.2 | 12.5 | 6.5 | 12.5 | 6.5 | binding to any human 5-HT2R (human 5-HT2R): no significant binding
C[C@H](N)Cn1ccc2cc(F)c(Cl)cc21 [Ro 60-0175] | borderline effective | 9.1 | 4.3 |  |  |  |  |  |  |  |  |  |  |  |  |  |  |  |  | Ki (human 5-HT2AR [4]): 37.2 nM
CC(N)Cc1cccc(C(F)(F)F)c1.Cl (single isomer, unassigned; (+)) [norfenfluramine, (+)-Norfenfluramine hydrochloride, reference compound] | suppressed convulsive swim behaviours in a concentration-dependent manner; also recorded: restore the swimming behaviour or scn1lab mutant larvae to wild-type levels | 306 | 18 |  |  |  |  |  |  |  |  |  |  |  |  |  |  |  |  | Ki (human 5-HT2AR [4]): 194 nM; larvae with reduced spontaneous seizure events (LFP) (scn1lab mutant zebrafish [6]; n = 8): 5 out of 8
c1ccc2c(c1)nc(CN1CCCC1)n2CC1CCCC1 [Compound 20] |  |  |  | 17.3 | -62.7 | -4.1 | -80.4 | -27.1 | -65.9 | -14.1 | -100 | -25.2 | -60.9 | -48.1 | -9.7 | -15.6 | -66.1 | -15.6 | -66.1 | effect on seizure-like swim behaviour, initial library screen (scn1lab mutant zebrafish [5]): effective in suppressing; effect on seizure-like swim behaviour, retest of independently synthesized compound (scn1lab mutant zebrafish [5]): reduced the high-velocity seizure-like swim behaviour; effect on electrographic seizure activity (LFP) (scn1lab mutant zebrafish [6]; 10 min recording epoch): significant suppression of electrographic seizure activity; pKi (human H1; read-out: Ki H1): 6.79; pKi (human 5-HT2BR [1]; read-out: Ki 5-HT2BR): 6.11
FC(F)(F)c1ccc(Cn2c(CN3CCCC3)nc3ccccc32)cc1 [Compound 6] |  |  |  | -34.5 | -100 | 38.1 | -91.9 | -51.3 | -100 | 10 | -100 | -75.4 | -79.3 | -79.2 | -92.7 | -40 | -94.7 | -76.2 | -90.5 | effect on seizure-like swim behaviour, initial library screen (scn1lab mutant zebrafish [5]): effective in suppressing; effect on seizure-like swim behaviour, retest of independently synthesized compound (scn1lab mutant zebrafish [5]): reduced the high-velocity seizure-like swim behaviour; effect on electrographic seizure activity (LFP) (scn1lab mutant zebrafish [6]; 10 min recording epoch): significant suppression of electrographic seizure activity; pKi (human H1; read-out: Ki H1): 7.80; pKi (human 5-HT2BR [1]; read-out: Ki 5-HT2BR): 6.55
Clc1cccc(COc2cncc(N3CCNCC3)n2)c1 [CP-809,101] | biphasic response | 64 | 6 |  |  |  |  |  |  |  |  |  |  |  |  |  |  |  |  | Ki (human 5-HT2AR [4]; [11]): 1.6 nM
